Reference: ChEMBL document CHEMBL1201862, “PubChem BioAssay data set” (2004)
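Where inhibition never reached the appropriate level, the endpoint shown equals the highest concentration tested. Otherwise, values were interpolated linearly from a five-concentration, 48-hour dose response in 96-well plates. At the GI50, growth is halved.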 The source made the active and inactive calls. Cut-off read from the data, not from the text of the source: active = GI50 up to about 1.1 µM and inactive = higher.

Tests used:
Test in all cases: NCI tumour cell line growth inhibition, 48 h
786-0 = system: 786-0
A498 = system: A498
A549 = system: A549
ACHN = system: ACHN
BT-549 = system: BT-549
CCRF-CEM = system: CCRF-CEM
COLO 205 = system: COLO 205
DU-145 = system: DU-145
EKVX = system: EKVX
HCC 2998 = system: HCC 2998
HCT-116 = system: HCT-116
HCT-15 = system: HCT-15
HL-60 = system: HL-60
HOP-62 = system: HOP-62
HOP-92 = system: HOP-92
HT-29 = system: HT-29
Hs-578T = system: Hs-578T
IGROV-1 = system: IGROV-1
K562 = system: K562
KM12 = system: KM12
LOX IMVI = system: LOX IMVI
M14 = system: M14
MCF7 = system: MCF7
MDA-MB-231 = system: MDA-MB-231
MDA-MB-435 = system: MDA-MB-435
MDA-N = system: MDA-N
MOLT-4 = system: MOLT-4
Malme-3M = system: Malme-3M
NCI-H226 = system: NCI-H226
NCI-H23 = system: NCI-H23
NCI-H460 = system: NCI-H460
NCI-H522 = system: NCI-H522
NCI/ADR-RES = system: NCI/ADR-RES
OVCAR-3 = system: OVCAR-3
OVCAR-4 = system: OVCAR-4
OVCAR-5 = system: OVCAR-5
OVCAR-8 = system: OVCAR-8
PC-3 = system: PC-3
RPMI-8226 = system: RPMI-8226
RXF 393 = system: RXF 393
SF-268 = system: SF-268
SF-295 = system: SF-295
SF-539 = system: SF-539
SK-MEL-28 = system: SK-MEL-28
SK-MEL-2 = system: SK-MEL-2
SK-MEL-5 = system: SK-MEL-5
SK-OV-3 = system: SK-OV-3
SN12C = system: SN12C
SNB-19 = system: SNB-19
SNB-75 = system: SNB-75
SR = system: SR
SW-620 = system: SW-620
T47D = system: T47D
TK-10 = system: TK-10
U-251 = system: U-251
UACC-257 = system: UACC-257
UACC-62 = system: UACC-62
UO-31 = system: UO-31

Measured: GI50

COC(=O)C1(Cc2ccccc2)Cc2cc3c(cc2C1=O)CCC3 (stereo not drawn)
inactive: 786-0 39.4 µM | A498 28.2 µM | A549 16.6 µM | ACHN 49.8 µM | BT-549 43.7 µM | CCRF-CEM 22.6 µM | COLO 205 19.5 µM | DU-145 48.1 µM | EKVX 25.3 µM | HCC 2998 2.81 µM | HCT-116 23.8 µM | HL-60 14.6 µM | HOP-62 80.5 µM | HOP-92 11.6 µM | HT-29 12 µM | Hs-578T 49.7 µM | IGROV-1 36 µM | K562 31.4 µM | KM12 19.8 µM | LOX IMVI 27 µM | M14 20 µM | MCF7 13.9 µM | MDA-MB-231 43.6 µM | MDA-MB-435 15.1 µM | MDA-N 15 µM | MOLT-4 17.1 µM | Malme-3M 22.5 µM | NCI-H226 27.4 µM | NCI-H23 56.2 µM | NCI-H460 4.44 µM | NCI-H522 21.2 µM | NCI/ADR-RES 30.5 µM | OVCAR-3 40 µM | OVCAR-4 33.7 µM | OVCAR-5 58.9 µM | OVCAR-8 31.2 µM | PC-3 26.1 µM | RPMI-8226 23.1 µM | RXF 393 36.8 µM | SF-268 22.2 µM | SF-295 38.2 µM | SF-539 43.2 µM | SK-MEL-28 46.2 µM | SK-MEL-2 18.3 µM | SK-MEL-5 16.6 µM | SK-OV-3 41.1 µM | SN12C 37.3 µM | SNB-19 47.1 µM | SNB-75 27.7 µM | SR 21.9 µM | SW-620 29.6 µM | T47D 13.4 µM | TK-10 64 µM | U-251 33.6 µM | UACC-257 36.9 µM | UACC-62 33.4 µM | UO-31 34.5 µM
31.6 µM: HCT-15
